Test results published in patent publication US12714106B2 (Bayer Aktiengesellschaft, priority 2020, dated 2026).

Experiments:
Assay type in all cases: in vivo
[1] = system: ABUTH (Abutilon theophrasti); experiment: Post-emergence greenhouse herbicide test, visual rating; conditions: post-emergence, 21 days after application
Protocol: (§1) Seeds of grass and broadleaf weeds were sown in pots (diameter: 7 cm) filled with a sandy loam soil. Following germination the plants were grown under optimal conditions up to a growth stage of BBCH 11 to 14 depending on species.
(§2) The applications were performed by post emergence treatments on the planted pots using a spray volume of 300 L water per hectare. The herbicides were applied alone and in combination as described.
(§3) The trial was conducted in the greenhouse ensuring optimal growing conditions.
(§4) The herbicidal effects were assessed 21 days following application by visual ratings comparing treated and untreated plants (0%=no effect to 100%=complete die-off).
(§5) The compounds of the formula (Ia), (Ib) and (I) were formulated as WP (wettable powder) formulation.
(§6) • BBCH=the BBCH code provides information about the morphological development stage of a plant. Officially, the abbreviation denotes the Biologische Bundesanstalt, Bundessortenamt and Chemische Industrie [Federal Biological Institute for Agriculture and Forestry, Federal Office for Crop Plant Varieties and Chemical Industry]. The range of BBCH 00-10 denotes the germination stages of the seeds until surface penetration. The range of BBCH 11-25 denotes the leaf development stages until stocking (corresponding to the number of tillers or side-shoots). In the Trials, the Following Biotypes of Broad-Leaved Weeds and Weed Grasses were Used: • ALOMY—sensitive (Alopecurus myosuroides) sensitive to customary herbicidally active compounds. • ALOMY_R (resistant) (Alopecurus myosuroides) resistant to herbicidally active compounds of the HRAC groups A and B; population mixture of field origin having increased metabolic resistance (IMR) and some target site resistance (TSR). • LOLRI—sensitive (Lolium rigidum) sensitive to customary herbicidally active compounds. • LOLRI_R (resistant) (Lolium rigidum) resistant to herbicidally active compounds of the HRAC groups A and B; population mixture of field origin having increased metabolic resistance (IMR) and some target site resistance (TSR). • AMAPA_R (resistant) (Amaranthus palmeri) resistant to herbicidally active compounds of the HRAC groups A and B; population mixture of field origin having increased metabolic resistance (IMR) and some target site resistance (TSR). • CHRVI (Chloris virgate) feather finger grass • KCHSC (Kochia scoparia) Mexican burning bush • MATIN (Matricaria inodora) false chamomile • POLCO (Polygonum convolvulus) black knotweed • ABUTH (Abutilon theophrasti) china jute • AMAPA (Amaranthus palmeri) palmer amaranth • BIDPI (Bidens pilosa) common blackjack • CHEAL (Chenopodium album) common lambsquarters • EPHHL (Euphorbia heterophylla) wild spurge • XANST (Xanthium strumarium) large cocklebur • EMEAU (Emex australis)—Cathead • GALAP (Gallium aparine)—Cleaver
(§7) The synergistic herbicidal activity was calculated using Colby's formula (cf. S. R. Colby; Weeds 15 (1967), 20-22): […]

[2] = system: AMAPA-R (resistant) (Amaranthus palmeri); experiment: as above; conditions: 25 g/ha single isomer; post-emergence; 21 days after application
Protocol: as §1, §2, §3, §4, §5, §6, §7

[3] = system: BID PI (Bidens pilosa); experiment: as above; conditions: 25 g/ha single isomer; post-emergence; 21 days after application
Protocol: as §1, §2, §3, §4, §5, §6, §7

[4] = system: CHEAL (Chenopodium album); experiment: as above; conditions: post-emergence, 21 days after application
Protocol: as §1, §2, §3, §4, §5, §6, §7

[5] = system: CHRVI (Chloris virgate); experiment: as above; conditions: 12.5 g/ha; post-emergence; 21 days after application
Protocol: as §1, §2, §3, §4, §5, §6, §7

[6] = system: EMEAU (Emex australis); experiment: as above; conditions: 50 g/ha; post-emergence; 21 days after application
Protocol: as §1, §2, §3, §4, §5, §6, §7

[7] = system: EPHHL (Euphorbia heterophylla); experiment: as above; conditions: post-emergence, 21 days after application
Protocol: as §1, §2, §3, §4, §5, §6, §7

[8] = system: GALAP (Gallium aparine); experiment: as above; conditions: 50 g/ha; post-emergence; 21 days after application
Protocol: as §1, §2, §3, §4, §5, §6, §7

[9] = system: KCHSC (Kochia scoparia); experiment: as above; conditions: 12.5 g/ha; post-emergence; 21 days after application
Protocol: as §1, §2, §3, §4, §5, §6, §7

[10] = system: LOLRI - sensitive (Lolium rigidum); experiment: as above; conditions: post-emergence, 21 days after application
Protocol: as §1, §2, §3, §4, §5, §6, §7

[11] = system: LOLRI_R (resistant) (Lolium rigidum); experiment: as above; conditions: post-emergence, 21 days after application
Protocol: as §1, §2, §3, §4, §5, §6, §7

[12] = system: MATIN (Matricaria inodora); experiment: as above; conditions: post-emergence, 21 days after application
Protocol: as §1, §2, §3, §4, §5, §6, §7

[13] = system: POLCO (Polygonum convolvulus); experiment: as above; conditions: 12.5 g/ha; post-emergence; 21 days after application
Protocol: as §1, §2, §3, §4, §5, §6, §7

[14] = system: XANST (Xanthium strumarium); experiment: as above; conditions: post-emergence, 21 days after application
Protocol: as §1, §2, §3, §4, §5, §6, §7

[15] = system: grass and broadleaf weeds; experiment: Comparative testing of crystalline (I), (Ia), (Ib), summary of tables 3 to 6; conditions: (I) vs (Ia); (Ia) vs (Ib); see tables 3 to 6
Protocol: as §1, §2, §3, §4, §5, §7

SMILES: C=C[C@]1(C(=O)N[C@@H]2CO[C@H](C(=O)OC)C2)CC(c2cc(F)cc(F)c2)=NO1 [(Ib), methyl(2S,4S)-4-[[(5S)-3-(3,5-difluorophenyl)-5-vinyl-4H-isoxazole-5-carbonyl]amino]-tetrahydrofuran-2-carboxylate]
- ABUTH Observed ([1]; 25 g/ha single isomer): 10%
- ABUTH Observed ([1]; 50 g/ha single isomer): 20%
- AMAPA-R Observed [2]: 25%
- BID PI Observed [3]: 10%
- CHEAL Observed ([4]; 25 g/ha single isomer): 20%
- CHEAL Observed ([4]; 50 g/ha single isomer): 60%
- CHRVI Observed [5]: 20%
- EMEAU Observed [6]: 45%
- EPHHL Observed ([7]; 25 g/ha single isomer): 35%
- EPHHL Observed ([7]; 50 g/ha single isomer): 35%
- GALAP Observed [8]: 35%
- KCHSC Observed [9]: 40%
- LOLRI Observed ([10]; 6.25 g/ha): 0%
- LOLRI Observed ([10]; 12.5 g/ha): 0%
- LOLRI_R Observed ([11]; 6.25 g/ha): 0%
- LOLRI_R Observed ([11]; 12.5 g/ha): 0%
- LOLRI_R Observed ([11]; 25 g/ha): 0%
- MATIN Observed ([12]; 12.5 g/ha): 0%
- MATIN Observed ([12]; 25 g/ha): 0%
- MATIN Observed ([12]; 50 g/ha): 0%
- POLCO Observed [13]: 40%
- XANST Observed ([14]; 25 g/ha single isomer): 0%
- XANST Observed ([14]; 50 g/ha single isomer): 10%
- XANST Observed ([14]; 100 g/ha single isomer): 20%

SMILES: C=C[C@]1(C(=O)N[C@H]2CO[C@@H](C(=O)OC)C2)CC(c2cc(F)cc(F)c2)=NO1 [(Ia), methyl(2R,4R)-4-[[(5S)-3-(3,5-difluorophenyl)-5-vinyl-4H-isoxazole-5-carbonyl]amino]-tetrahydrofuran-2-carboxylate]
- ABUTH Observed ([1]; 25 g/ha single isomer): 45%
- ABUTH Observed ([1]; 50 g/ha single isomer): 60%
- AMAPA-R Observed [2]: 35%
- BID PI Observed [3]: 30%
- CHEAL Observed ([4]; 25 g/ha single isomer): 70%
- CHRVI Observed [5]: 35%
- EMEAU Observed [6]: 80%
- EPHHL Observed ([7]; 25 g/ha single isomer): 30%
- EPHHL Observed ([7]; 50 g/ha single isomer): 35%
- GALAP Observed [8]: 75%
- KCHSC Observed [9]: 70%
- LOLRI Observed ([10]; 6.25 g/ha): 20%
- LOLRI Observed ([10]; 12.5 g/ha): 90%
- LOLRI_R Observed ([11]; 6.25 g/ha): 15%
- LOLRI_R Observed ([11]; 12.5 g/ha): 20%
- LOLRI_R Observed ([11]; 25 g/ha): 30%
- MATIN Observed ([12]; 12.5 g/ha): 0%
- MATIN Observed ([12]; 25 g/ha): 0%
- MATIN Observed ([12]; 50 g/ha): 0%
- POLCO Observed [13]: 85%
- XANST Observed ([14]; 25 g/ha single isomer): 0%
- XANST Observed ([14]; 50 g/ha single isomer): 20%
- XANST Observed ([14]; 100 g/ha single isomer): 20%
- herbicidal activity compared with the other crystalline forms [15]: superior in activity
